Consider one substance from patent US5112519A, “Process for production of biodegradable surfactants and compositions thereof” (Mobil Oil Corporation, priority 1989, dated 1992).

A short description of assay [1]: Soil removal, phosphorous built industrial liquid laundry detergent, carbon black/oil. Conditions: 130° F. The source says: (§1) In contrast, the three industrial detergents contained a high performance builder package, and dodecylbenzenesulfonic acid sodium salt. Two of the three also contain an AE, either tridecanol-9-mole-ethoxylate or C12-15 -alcohol-9 mole-ethoxylate. Many commercial detergents use combinations of LABS and AE's to balance performance and cost. LABS remove particulates well and lower overall surfactant cost while AE's effectively remove oily soils. The surfactant concentrations in all three are equal (i.e., the detergent without AE had more LABS) excepting the detergent using Mobil's AE. Its concentration is not increased to offset a contaminant, 7 wt % polyethylene glycol. The builder in all three detergents contained tetrapotassium pyrophosphate, sodium metasilicate, potassium hydroxide, and carboxymethylcellulose.
(§2) Testing Methods. This study uses two artificial soils on three test fabrics. Carbon black in an oil matrix simulates particulate soil, and sebum/dust simulates oily soil. Test Fabrics Inc. (Middlesex, N.J.) prints these soils on 100% cotton, 65/35 polyester/cotton with permanent press finish, and 100% polyester fabrics.
(§3) U.S. Testing Company did the fabric washing and drying under carefully controlled conditions. A Terg-O-Tometer washes using a 15 minute wash time. Conditions are 100 rpm agitation speed, 130° F. for the industrial detergents and 100° F. for the household detergents. They made wash and rinse water to 150 ppm hardness (U.S. national average), and washes six 3×4 inch test swatches per liter of solution. They rinse each load twice for five minutes. After washing and rinsing, the swatches are dried in an electric dryer, and ironed with a warm iron to remove wrinkles. All samples are run in triplicate.
(§4) White light reflectance, taken before and after washing, measures soil removal. A green filter cut out the effect of artificial brighteners. They measure soil redoposition by taking reflectance readings of fabric margins (areas not printed with soil) before and after washing. […]

Assay [2] can be described thus: Soil removal, phosphorous built industrial liquid laundry detergent, sebum/dust. Particulars: 130° F.
Description: as §1, §2, §3, §4

Assay [3] is described as follows: Soil removal, unbuilt household liquid laundry detergent, carbon black/oil. Particulars: 100° F.
Description: (§5) Applicants blend three unbuilt household detergents differing only in the surfactant. Either Mobil's tridecanol-9 mole-ethoxylate, Shell's C12-15 -alcohol-9 mole-ethoxylate, or Vista's dodecylbenzenesulfonic acid sodium salt are used. All contain triethanolamine to make the wash liquor basic. This type formulation magnifies surfactant differences because it lacks a builder to extend the surfactant and soften hard water.
as §2, §3
(§6) White light reflectance, taken before and after washing, measures soil removal. A green filter cut out the effect of artificial brighteners. They measure soil redoposition by taking reflectance readings of fabric margins (areas not printed with soil) before and after washing. […] However, the reflectance technique more closely measures soil removal from the fabric surface, what the consumer sees.

Assay [4] in a line: Soil removal, unbuilt household liquid laundry detergent, sebum/dust. Particulars: 100° F.
Description: as §5, §2, §3, §6

“dodecylbenzenesulfonic acid sodium salt [Vista LABS]”: the “Percent Soil Removal” value came to 52% in assay [1] (Cotton); 29% in assay [1] (Polyester); 34% in assay [1] (Polyester/Cotton); 60% in assay [2] (Cotton); 39% in assay [2] (Polyester); 82% in assay [2] (Polyester/Cotton). For the same substance, the “Percent Soil Removal” value in assay [3] (Cotton) came to 36%; in assay [3] (Polyester) it was 40%; in assay [3] (Polyester/Cotton), 31%; in assay [4] (Cotton) it was 36%; in assay [4] (Polyester) it was 19%; in assay [4] (Polyester/Cotton) it was 45%.
